Measurements: the NIST ThermoML archive (doi:10.1016/j.tca.2014.02.019)
Numbers after ± are expanded uncertainties.

Assay: xn = mol fraction of the nth substance listed
Conditions: 101 kPa, Liquid; for viscosity: Falling or rolling sphere viscometry; for mass density: Vibrating tube method

CCOS(=O)(=O)[O-].CC[N+]1(C)CCOCC1 [4-ethyl-4-methylmorpholinium ethyl sulfate] + O
Conditions | mass density [kg/m3] | viscosity [mPa·s]
298.15 K, x1 = 0.1255 | 1160.26 ± 0.33 | 7.655 ± 1.2
298.15 K, x1 = 0.2214 | 1196.87 ± 0.32 | 20.62 ± 3.3
298.15 K, x1 = 0.3165 | 1215.39 ± 0.43 | 46.5 ± 7.5
298.15 K, x1 = 0.4406 | 1229.15 ± 0.69 | 115.6 ± 19
298.15 K, x1 = 0.6319 | 1240.92 ± 1.3 | 529.2 ± 93
298.15 K, x1 = 0.7239 | 1244.69 ± 1.6 | 686.5 ± 120
298.15 K, x1 = 0.807 | 1247.34 ± 2 | 2262 ± 450
298.15 K, x1 = 1 | 1252.26 ± 3 | –
303.15 K, x1 = 0.1255 | 1157.12 ± 0.31 | 6.513 ± 1
303.15 K, x1 = 0.2214 | 1193.61 ± 0.32 | 16.92 ± 2.7
303.15 K, x1 = 0.3165 | 1212.17 ± 0.43 | 36.79 ± 5.9
303.15 K, x1 = 0.4406 | 1226.03 ± 0.69 | 93.81 ± 15
303.15 K, x1 = 0.6319 | 1237.71 ± 1.3 | 400.9 ± 69
303.15 K, x1 = 0.7239 | 1241.43 ± 1.6 | 533.1 ± 94
303.15 K, x1 = 0.807 | 1244.19 ± 2 | 1630 ± 310
303.15 K, x1 = 1 | 1249.05 ± 3 | –
308.15 K, x1 = 0.1255 | 1153.95 ± 0.3 | 5.589 ± 0.9
308.15 K, x1 = 0.2214 | 1190.35 ± 0.32 | 14.11 ± 2.3
308.15 K, x1 = 0.3165 | 1208.94 ± 0.43 | 29.62 ± 4.8
308.15 K, x1 = 0.4406 | 1222.87 ± 0.68 | 72.42 ± 12
308.15 K, x1 = 0.6319 | 1234.48 ± 1.3 | 309.1 ± 52
308.15 K, x1 = 0.7239 | 1238.23 ± 1.6 | 408.3 ± 71
308.15 K, x1 = 0.807 | 1241 ± 2 | 1088 ± 200
308.15 K, x1 = 1 | 1245.86 ± 3 | –
313.15 K, x1 = 0.1255 | 1150.75 ± 0.3 | 4.817 ± 0.77
313.15 K, x1 = 0.2214 | 1187.08 ± 0.31 | 11.93 ± 1.9
313.15 K, x1 = 0.3165 | 1205.7 ± 0.42 | 24.24 ± 3.9
313.15 K, x1 = 0.4406 | 1219.69 ± 0.68 | 57.41 ± 9.2
313.15 K, x1 = 0.6319 | 1231.24 ± 1.3 | 226.8 ± 38
313.15 K, x1 = 0.7239 | 1235.04 ± 1.6 | 308.8 ± 52
313.15 K, x1 = 0.807 | 1237.81 ± 2 | 746.9 ± 140
313.15 K, x1 = 1 | 1242.67 ± 3 | 2426 ± 480
318.15 K, x1 = 0.1255 | 1147.52 ± 0.3 | 4.176 ± 0.67
318.15 K, x1 = 0.2214 | 1183.79 ± 0.31 | 10.2 ± 1.6
318.15 K, x1 = 0.3165 | 1202.45 ± 0.42 | 20.16 ± 3.2
318.15 K, x1 = 0.4406 | 1216.5 ± 0.68 | 46.03 ± 7.4
318.15 K, x1 = 0.6319 | 1228.05 ± 1.2 | 170.3 ± 28
318.15 K, x1 = 0.7239 | 1231.83 ± 1.6 | 240 ± 40
318.15 K, x1 = 0.807 | 1234.63 ± 2 | 526.7 ± 93
318.15 K, x1 = 1 | 1239.51 ± 3 | 1677 ± 320
323.15 K, x1 = 0.1255 | 1144.26 ± 0.3 | 3.673 ± 0.59
323.15 K, x1 = 0.2214 | 1180.48 ± 0.31 | 8.814 ± 1.4
323.15 K, x1 = 0.3165 | 1199.19 ± 0.42 | 16.96 ± 2.7
323.15 K, x1 = 0.4406 | 1213.31 ± 0.67 | 37.3 ± 6
323.15 K, x1 = 0.6319 | 1224.95 ± 1.2 | 130.6 ± 21
323.15 K, x1 = 0.7239 | 1228.72 ± 1.6 | 180.6 ± 30
323.15 K, x1 = 0.807 | 1231.45 ± 2 | 379.7 ± 65
323.15 K, x1 = 1 | 1236.35 ± 3 | 1129 ± 210
328.15 K, x1 = 0.1255 | 1140.96 ± 0.3 | 2.845 ± 0.46
328.15 K, x1 = 0.2214 | 1177.17 ± 0.31 | 7.649 ± 1.2
328.15 K, x1 = 0.3165 | 1195.92 ± 0.42 | 14.47 ± 2.3
328.15 K, x1 = 0.4406 | 1210.11 ± 0.67 | 30.77 ± 4.9
328.15 K, x1 = 0.6319 | 1221.84 ± 1.2 | 101.7 ± 16
328.15 K, x1 = 0.7239 | 1225.53 ± 1.6 | 138.4 ± 23
328.15 K, x1 = 0.807 | 1228.26 ± 1.9 | 280.6 ± 47
328.15 K, x1 = 1 | 1233.2 ± 2.9 | 779.3 ± 140
333.15 K, x1 = 0.1255 | 1137.63 ± 0.3 | 2.896 ± 0.46
333.15 K, x1 = 0.2214 | 1173.83 ± 0.31 | 6.732 ± 1.1
333.15 K, x1 = 0.3165 | 1192.63 ± 0.42 | 12.44 ± 2
333.15 K, x1 = 0.4406 | 1206.91 ± 0.66 | 25.72 ± 4.1
333.15 K, x1 = 0.6319 | 1218.72 ± 1.2 | 80.93 ± 13
333.15 K, x1 = 0.7239 | 1222.36 ± 1.6 | 108.1 ± 18
333.15 K, x1 = 0.807 | 1225.07 ± 1.9 | 211.6 ± 35
333.15 K, x1 = 1 | 1230.06 ± 2.9 | 552.3 ± 98
338.15 K, x1 = 0.1255 | 1134.26 ± 0.3 | 2.626 ± 0.42
338.15 K, x1 = 0.2214 | 1170.4 ± 0.31 | 5.925 ± 0.95
338.15 K, x1 = 0.3165 | 1189.38 ± 0.41 | 10.79 ± 1.7
338.15 K, x1 = 0.4406 | 1203.71 ± 0.66 | 21.68 ± 3.5
338.15 K, x1 = 0.6319 | 1215.6 ± 1.2 | 65 ± 10
338.15 K, x1 = 0.7239 | 1219.28 ± 1.6 | 85.65 ± 14
338.15 K, x1 = 0.807 | 1221.94 ± 1.9 | 162.7 ± 27
338.15 K, x1 = 1 | 1226.93 ± 2.9 | 400.8 ± 69
343.15 K, x1 = 0.1255 | 1130.86 ± 0.32 | 2.124 ± 0.34
343.15 K, x1 = 0.2214 | 1167.12 ± 0.31 | 5.3 ± 0.85
343.15 K, x1 = 0.3165 | 1186.1 ± 0.41 | 9.457 ± 1.5
343.15 K, x1 = 0.4406 | 1200.5 ± 0.65 | 18.46 ± 3
343.15 K, x1 = 0.6319 | 1212.48 ± 1.2 | 53 ± 8.5
343.15 K, x1 = 0.7239 | 1216.18 ± 1.6 | 68.72 ± 11
343.15 K, x1 = 0.807 | 1218.8 ± 1.9 | 126.8 ± 21
343.15 K, x1 = 1 | 1223.81 ± 2.9 | 297.3 ± 50
